Test system: NCI/ADR-RES complex spheroid viability
Experiment: Anticancer human tumor NCI/ADR-RES cell line growth inhibition;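 also: spheroids exposed to compounds for 7 days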;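 as to viability, T/C: 100% = DMSO vehicle treated spheroids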
Conditions: for IC50: curve of first compound; for viability, T/C: stronger effect = lower value; active = viability on the fitted dose curve at most 10% of control; inactive = the rest
In short: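 Multicellular complex spheroids of tumor cells with human endothelial cells (HUVEC) and mesenchymal stem cells; the LSD1 inhibitor iadademstat was combined with standard-of-care or investigational agents. Top concentration at or near clinical Cmax, half-log dilutions; final DMSO ≤0.25%.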

[1] = second compound 0.1 µM, first compound 0.00949 µM
[2] = second compound 0.1 µM, first compound 0.03 µM
[3] = second compound 0.1 µM, first compound 0.0949 µM
[4] = second compound 0.1 µM, first compound 0.3 µM
[5] = second compound 0.316 µM, first compound 0.00949 µM
[6] = second compound 0.316 µM, first compound 0.03 µM
[7] = second compound 0.316 µM, first compound 0.0949 µM
[8] = second compound 0.316 µM, first compound 0.3 µM
[9] = second compound 1 µM, first compound 0.00949 µM
[10] = second compound 1 µM, first compound 0.03 µM
[11] = second compound 1 µM, first compound 0.0949 µM
[12] = second compound 1 µM, first compound 0.3 µM
[13] = second compound 3.16 µM, first compound 0.00949 µM
[14] = second compound 3.16 µM, first compound 0.03 µM
[15] = second compound 3.16 µM, first compound 0.0949 µM
[16] = second compound 3.16 µM, first compound 0.3 µM
[17] = second compound 10 µM, first compound 0.00949 µM
[18] = second compound 10 µM, first compound 0.03 µM
[19] = second compound 10 µM, first compound 0.0949 µM
[20] = second compound 10 µM, first compound 0.3 µM

CCc1c2c(nc3ccc(O)cc13)-c1cc3c(c(=O)n1C2)COC(=O)[C@]3(O)CC + NC1CC1c1ccc(-c2cccc(O)c2)cc1
< 0.949 nM: IC50 (second compound 0.1 µM) | IC50 (second compound 0.316 µM) | IC50 (second compound 1 µM) | IC50 (second compound 3.16 µM) | IC50 (second compound 10 µM)
inactive: viability, T/C (second compound 10 µM, first compound 0.000949 µM) 20.9%
active: viability, T/C (second compound 0.1 µM, first compound 0.000949 µM) 3.8% | viability, T/C (second compound 0.1 µM, first compound 0.003 µM) 1.6% | viability, T/C [1] 0.64% | viability, T/C [2] 0.32% | viability, T/C [3] 0.23% | viability, T/C [4] 0.59% | viability, T/C (second compound 0.316 µM, first compound 0.000949 µM) 3.44% | viability, T/C (second compound 0.316 µM, first compound 0.003 µM) 1.85% | viability, T/C [5] 0.73% | viability, T/C [6] 0.21% | viability, T/C [7] 0.3% | viability, T/C [8] 0.38% | viability, T/C (second compound 1 µM, first compound 0.000949 µM) 4.73% | viability, T/C (second compound 1 µM, first compound 0.003 µM) 3.11% | viability, T/C [9] 0.96% | viability, T/C [10] 0.37% | viability, T/C [11] 0.24% | viability, T/C [12] 0.51% | viability, T/C (second compound 3.16 µM, first compound 0.000949 µM) 8.34% | viability, T/C (second compound 3.16 µM, first compound 0.003 µM) 2.9% | viability, T/C [13] 1.29% | viability, T/C [14] 0.29% | viability, T/C [15] 0.18% | viability, T/C [16] 0.31% | viability, T/C (second compound 10 µM, first compound 0.003 µM) 3.67% | viability, T/C [17] 1.58% | viability, T/C [18] 0.59% | viability, T/C [19] 0.26% | viability, T/C [20] 0.3%

Nc1ccccc1NC(=O)c1ccc(CNC(=O)OCc2cccnc2)cc1 + NC1CC1c1ccc(-c2cccc(O)c2)cc1
907 nM: IC50 (second compound 0.316 µM)
824 nM: IC50 (second compound 0.1 µM)
882 nM: IC50 (second compound 10 µM)
inactive: viability, T/C [1] 93.7% | viability, T/C [2] 97.9% | viability, T/C [3] 85.7% | viability, T/C [4] 69.1% | viability, T/C (second compound 0.1 µM, first compound 0.949 µM) 48.3% | viability, T/C (second compound 0.1 µM, first compound 3 µM) 27.2% | viability, T/C [5] 99.2% | viability, T/C [6] 95.9% | viability, T/C [7] 95% | viability, T/C [8] 72.8% | viability, T/C (second compound 0.316 µM, first compound 0.949 µM) 50.3% | viability, T/C (second compound 0.316 µM, first compound 3 µM) 25.8% | viability, T/C [9] 93.3% | viability, T/C [10] 91.1% | viability, T/C [11] 85.3% | viability, T/C [12] 71.5% | viability, T/C (second compound 1 µM, first compound 0.949 µM) 49.1% | viability, T/C (second compound 1 µM, first compound 3 µM) 26.7% | viability, T/C [13] 93.5% | viability, T/C [14] 89.5% | viability, T/C [15] 80.5% | viability, T/C [16] 71% | viability, T/C (second compound 3.16 µM, first compound 0.949 µM) 49.4% | viability, T/C (second compound 3.16 µM, first compound 3 µM) 30.8% | viability, T/C [17] 83.4% | viability, T/C [18] 84.1% | viability, T/C [19] 74.7% | viability, T/C [20] 60.9% | viability, T/C (second compound 10 µM, first compound 0.949 µM) 51.3% | viability, T/C (second compound 10 µM, first compound 3 µM) 31%
906 nM: IC50 (second compound 1 µM)
976 nM: IC50 (second compound 3.16 µM)

O=C(c1cc(Cc2n[nH]c(=O)c3ccccc23)ccc1F)N1CCN(C(=O)C2CC2)CC1 + NC1CC1c1ccc(-c2cccc(O)c2)cc1
> 10000 nM: IC50 (second compound 0.1 µM) | IC50 (second compound 0.316 µM) | IC50 (second compound 1 µM) | IC50 (second compound 3.16 µM) | IC50 (second compound 10 µM)
inactive: viability, T/C (second compound 0.1 µM, first compound 0.0316 µM) 112% | viability, T/C (second compound 0.1 µM, first compound 0.1 µM) 108% | viability, T/C (second compound 0.1 µM, first compound 0.316 µM) 107% | viability, T/C (second compound 0.1 µM, first compound 1 µM) 105% | viability, T/C (second compound 0.1 µM, first compound 3.16 µM) 99.5% | viability, T/C (second compound 0.1 µM, first compound 10 µM) 91.8% | viability, T/C (second compound 0.316 µM, first compound 0.0316 µM) 111% | viability, T/C (second compound 0.316 µM, first compound 0.1 µM) 115% | viability, T/C (second compound 0.316 µM, first compound 0.316 µM) 108% | viability, T/C (second compound 0.316 µM, first compound 1 µM) 103% | viability, T/C (second compound 0.316 µM, first compound 3.16 µM) 106% | viability, T/C (second compound 0.316 µM, first compound 10 µM) 95% | viability, T/C (second compound 1 µM, first compound 0.0316 µM) 106% | viability, T/C (second compound 1 µM, first compound 0.1 µM) 106% | viability, T/C (second compound 1 µM, first compound 0.316 µM) 103% | viability, T/C (second compound 1 µM, first compound 1 µM) 104% | viability, T/C (second compound 1 µM, first compound 3.16 µM) 99.4% | viability, T/C (second compound 1 µM, first compound 10 µM) 80.1% | viability, T/C (second compound 3.16 µM, first compound 0.0316 µM) 110% | viability, T/C (second compound 3.16 µM, first compound 0.1 µM) 111% | viability, T/C (second compound 3.16 µM, first compound 0.316 µM) 103% | viability, T/C (second compound 3.16 µM, first compound 1 µM) 97.3% | viability, T/C (second compound 3.16 µM, first compound 3.16 µM) 96.7% | viability, T/C (second compound 3.16 µM, first compound 10 µM) 88.6% | viability, T/C (second compound 10 µM, first compound 0.0316 µM) 91.8% | viability, T/C (second compound 10 µM, first compound 0.1 µM) 95.3% | viability, T/C (second compound 10 µM, first compound 0.316 µM) 96.4% | viability, T/C (second compound 10 µM, first compound 1 µM) 94.4% | viability, T/C (second compound 10 µM, first compound 3.16 µM) 88.7% | viability, T/C (second compound 10 µM, first compound 10 µM) 74.5%
